Measurements reported in the Kinase Knowledgebase extract (Sharma et al. 2016).

Molecular target: CDK2 (UniProt P24941)
Experiment: Enzyme Assay
Conditions: concentration not given here

Row | Structure (SMILES) | inhibition
1 | CC#CC(=O)Nc1sc2c(c1C(N)=O)CCCC2 | 100%
2 | Cc1sc(NC(=O)c2ccc(C(F)(F)F)cc2)c(C(N)=O)c1C | 100%
3 | COc1cccc(/C=C\C(=O)Nc2scc(C)c2C(N)=O)c1OC | 100%
4 | Cc1csc(NC(=O)CNC(=O)c2ccccc2O)c1C(N)=O | 100%
5 | Cc1csc(NC(=O)c2cc(-n3cccc3)ccc2O)c1C(N)=O | 100%
6 | Cc1csc(NC(=O)CCCCCN2C(=O)C=CC2=O)c1C(N)=O | 100%
7 | Cc1sc(NC(=O)CCCC(=O)c2ccccc2)c(C(N)=O)c1C | 100%
8 | CC(C)C(=O)Nc1sc2c(c1C(N)=O)CCCC2 | 100%
9 | NC(=O)c1c(NC(=O)c2cn[nH]c2)sc2c1CCCC2 | 100%
10 | Cc1csc(NC(=O)c2nn(-c3ccccc3)nc2C)c1C(N)=O | 100%
11 | Cc1csc(NC(=O)CCc2nc3ccccc3[nH]2)c1C(N)=O | 100%
12 | CN1CCc2c(sc(NC(=O)/C=C\C(=O)Nc3cccc4ccccc34)c2C(N)=O)C1 | 100%
13 | CC(=O)NC(C(=O)Nc1scc(C)c1C(N)=O)c1ccccc1 (stereo unspecified) | 100%
14 | COc1ccc2cc(C(=O)Nc3scc(C)c3C(N)=O)[nH]c2c1 | 100%
15 | Cc1sc(NC(=O)Cn2cc(C)c(=O)[nH]c2=O)c(C(N)=O)c1C | 100%
16 | NC(=O)c1c(NC(=O)c2ccc[nH]2)sc2c1CCCC2 | 100%
17 | CN1CCc2c(sc(NC(=O)C(Cc3c[nH]cn3)NC(=O)c3ccccc3)c2C(N)=O)C1 (stereo unspecified) | 100%
18 | CCC(=O)C(=O)Nc1sc2c(c1C(N)=O)CCCC2 | 100%
19 | Cc1sc(NC(=O)CNc2cccnc2)c(C(N)=O)c1C | 100%
20 | CC(=O)Nc1ccc(Br)cc1C(=O)Nc1sc2c(c1C(N)=O)CCN(C)C2 | 100%
21 | Cc1sc(NC(=O)c2ccc(Cl)cc2Cl)c(C(N)=O)c1C | 100%

Row | Structure (SMILES) | inhibition
22 | COc1cc(OC)cc(C(=O)Nc2sc(C)c(C)c2C(N)=O)c1 | 100%
23 | COc1cc(OC)c(C(=O)Nc2scc(C)c2C(N)=O)cc1OC | 100%
24 | Cc1noc(C)c1C(=O)Nc1sc(C(C)C)cc1C(N)=O | 100%
25 | NC(=O)/C=C\C(=O)N(C(N)=O)c1sc(Cc2ccccc2)cc1C(N)=O | 100%
26 | Cc1sc(NC(=O)c2coc3ccccc3c2=O)c(C(N)=O)c1C | 100%
27 | CC(C)=CC(=O)Nc1sc2c(c1C(N)=O)CCCC2 | 100%
28 | Cc1sc(NC(=O)c2ccc(Cl)c(Cl)c2)c(C(N)=O)c1C | 100%
29 | NC(=O)c1c(N2C(=O)CCC2C(N)=O)sc2c1CCCC2 (stereo unspecified) | 100%
30 | CN1CCc2c(sc(NC(=O)CCCc3c[nH]c4ccccc34)c2C(N)=O)C1 | 100%
31 | CN1CCc2c(sc(NC(=O)c3cc(O)c4cc(Cl)ccc4n3)c2C(N)=O)C1 | 100%
32 | CC(=O)CC(=O)N(CC(N)=O)c1sc(-c2ccccc2)cc1C(N)=O | 100%
33 | CN1CCc2c(sc(NC(=O)CCN3C(=O)c4ccccc4C3=O)c2C(N)=O)C1 | 100%
34 | Cc1csc(NC(=O)c2ccc(S(C)(=O)=O)cc2)c1C(N)=O | 100%
35 | Cc1csc(NC(=O)CCNC(=O)c2ccccc2)c1C(N)=O | 100%
36 | Cc1sc(NC(=O)c2cc(=O)c3ccccc3o2)c(C(N)=O)c1C | 100%
37 | CN1CCc2c(sc(NC(=O)c3ccc(-c4ccc(Cl)cc4)o3)c2C(N)=O)C1 | 100%
38 | Cc1csc(NC(=O)C(C)NC(=O)c2ccccc2)c1C(N)=O (stereo unspecified) | 100%
39 | Cc1ccc2[nH]c(C(=O)Nc3sc(C)c(C)c3C(N)=O)cc2c1 | 100%
40 | Cc1csc(NC(=O)CNC(=O)/C=C/c2ccco2)c1C(N)=O | 100%
41 | CC(C)c1cc(C(N)=O)c(NC(=O)CCC2CCCC2)s1 | 100%
42 | COc1ccc(/C=C\C(=O)Nc2scc(C)c2C(N)=O)cc1OC | 100%

Other lines, results leading:

Row | inhibition | Structure (SMILES)
43 | 100% | COc1cccc(C(=O)Nc2sc(-c3ccccc3)cc2C(N)=O)c1
44 | 100% | CC(=O)NCCCCCC(=O)Nc1sc(C(C)c2ccccc2)cc1C(N)=O (stereo unspecified)
45 | 100% | NC(=O)c1cc(-c2ccccc2)sc1NC(=O)C1(c2ccccc2)CC1
46 | 100% | CC(C)c1cc(C(N)=O)c(NC(=O)/C=C/c2cccnc2)s1
47 | 100% | Cc1cccc(CC(=O)Nc2sc(C(C)C)cc2C(N)=O)c1
48 | 100% | Cc1cccc(C(=O)Nc2sc(-c3ccccc3)cc2C(N)=O)c1O
49 | 100% | CC(C)c1ccc(C(=O)Nc2sc(Cc3ccccc3)cc2C(N)=O)cc1
50 | 100% | CC(=O)NC(=O)C(Nc1sc(-c2ccccc2)cc1C(N)=O)C(C)C (stereo unspecified)
51 | 100% | NC(=O)c1cc(Cc2ccccc2)sc1NC(=O)/C(F)=C/c1ccccc1
52 | 100% | CC(=O)Nc1cccc(C(=O)Nc2sc(C(C)c3ccccc3)cc2C(N)=O)c1 (stereo unspecified)
53 | 100% | CC(c1ccccc1)c1cc(C(N)=O)c(NC(=O)c2nccc3ccccc23)s1 (stereo unspecified)
54 | 100% | Cc1ccc(C(=O)Nc2sc(C(C)C)cc2C(N)=O)c(C)c1
55 | 100% | COc1ccccc1/C=C\C(=O)Nc1sc(C(C)c2ccccc2)cc1C(N)=O (stereo unspecified)
56 | 100% | CC(c1ccccc1)c1cc(C(N)=O)c(NC(=O)CC2CCc3ccccc32)s1 (stereo unspecified)
57 | 100% | Cc1csc(NC(=O)C2c3ccccc3-c3ccccc32)c1C(N)=O
58 | 100% | NC(=O)c1cc(-c2ccccc2)sc1NC(=O)C(F)c1ccccc1 (stereo unspecified)
59 | 100% | CC(C)c1cc(C(N)=O)c(NC(=O)/C=C/c2ccncc2)s1
60 | 100% | CC1=C(C(=O)Nc2sc(C(C)c3ccccc3)cc2C(N)=O)Cc2ccccc21 (stereo unspecified)
61 | 100% | CC(C)c1cc(C(N)=O)c(NC(=O)CCc2cccnc2)s1
62 | 100% | NC(=O)c1cc(-c2ccccc2)sc1NC(=O)Cc1ccccc1F

Row | inhibition | Structure (SMILES)
63 | 100% | Cc1ccc(C(=O)Nc2sc(-c3ccccc3)cc2C(N)=O)c(O)c1
64 | 100% | CC(c1ccccc1)c1cc(C(N)=O)c(NC(=O)c2cn(C)c3ccccc23)s1 (stereo unspecified)
65 | 100% | CC(c1ccccc1)c1cc(C(N)=O)c(NC(=O)c2cc(Cl)ccc2O)s1 (stereo unspecified)
66 | 100% | CC(c1ccccc1)c1cc(C(N)=O)c(NC(=O)c2cccc3ccccc23)s1 (stereo unspecified)
67 | 100% | COc1ccc(C)c(C(=O)Nc2sc(Cc3ccccc3)cc2C(N)=O)c1
68 | 100% | Cc1ccc(CC(=O)Nc2sc(C(C)C)cc2C(N)=O)cc1
69 | 100% | CN(C)c1cccc(C(=O)Nc2sc(Cc3ccccc3)cc2C(N)=O)c1
70 | 100% | CN(C)c1ccccc1C(=O)Nc1sc(Cc2ccccc2)cc1C(N)=O
71 | 100% | Cc1cc(C)cc(C(=O)Nc2sc(C(C)C)cc2C(N)=O)c1
72 | 100% | C#CC(=O)N(c1ccccc1)c1sc(C(C)C)cc1C(N)=O
73 | 100% | CC(C)c1cc(C(N)=O)c(NC(=O)c2ccccc2F)s1
74 | 100% | COc1cc(C(=O)Nc2sc(Cc3ccccc3)cc2C(N)=O)ccc1C
75 | 100% | COc1ccccc1C(=O)Nc1sc(-c2ccccc2)cc1C(N)=O
76 | 100% | NC(=O)c1cc(Cc2ccccc2)sc1NC(=O)c1ccc2[nH]cnc2c1
77 | 100% | CC(c1ccccc1)c1cc(C(N)=O)c(NC(=O)c2cnc3ccccc3c2)s1 (stereo unspecified)
78 | 100% | CC(=O)N1CCC(O)C1C(=O)Nc1sc(C(C)c2ccccc2)cc1C(N)=O (stereo unspecified)
79 | 100% | CC(C)c1cc(C(N)=O)c(NC(=O)c2ccc(O)cc2)s1
80 | 100% | CC(c1ccccc1)c1cc(C(N)=O)c(NC(=O)C(c2ccccc2)C(C)C)s1 (stereo unspecified)
81 | 100% | C/C(=C/c1ccccc1)C(=O)Nc1sc(-c2ccccc2)cc1C(N)=O
